From ChEMBL document CHEMBL1124960, “Histamine H3 ligands: just pharmacological tools or potential therapeutic agents?” (J Med Chem, 1990)

Key:
[1] = target: Histamine H2 receptor (Cavia porcellus) (UniProt P47747); experiment: Evaluated for antagonist activity against histamine H2 receptor and represented as KB.; assay type: functional
[2] = target: Histamine H3 receptor (Rattus norvegicus) (UniProt Q9QYN8); experiment: Evaluated for antagonist activity against histamine H3 receptor and represented as KB.; assay type: functional
Target sequence in this assay (Q9QYN8 whole entry): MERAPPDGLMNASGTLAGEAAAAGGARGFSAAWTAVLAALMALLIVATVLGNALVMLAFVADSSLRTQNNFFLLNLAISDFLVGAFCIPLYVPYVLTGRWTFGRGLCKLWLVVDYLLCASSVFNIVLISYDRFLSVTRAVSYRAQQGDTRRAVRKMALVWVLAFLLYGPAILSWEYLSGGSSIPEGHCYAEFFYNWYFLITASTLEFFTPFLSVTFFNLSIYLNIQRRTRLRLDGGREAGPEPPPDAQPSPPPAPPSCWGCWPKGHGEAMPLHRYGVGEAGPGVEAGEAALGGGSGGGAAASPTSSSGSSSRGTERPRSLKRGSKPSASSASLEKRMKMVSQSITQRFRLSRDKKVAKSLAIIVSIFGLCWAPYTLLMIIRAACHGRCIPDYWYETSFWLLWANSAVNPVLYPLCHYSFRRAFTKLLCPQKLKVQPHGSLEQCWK

[3] = target: Histamine H2 receptor (Cavia porcellus) (UniProt P47747); experiment: Evaluated for activity against histamine H2 receptor in guinea pig gastric secretion and represented as alpha; assay type: tissue-based; conditions: Stomach
[4] = target: Histamine H2 receptor (Cavia porcellus) (UniProt P47747); experiment: Evaluated for activity against histamine H2 receptor in guinea pig gastric secretion and represented as pD2; assay type: tissue-based; conditions: Stomach
[5] = target: Histamine H2 receptor (Cavia porcellus) (UniProt P47747); experiment: Evaluated for activity against histamine H2 receptor in guinea pig atrium and represented as alpha; assay type: tissue-based; conditions: Cardiac atrium
[6] = target: Histamine H2 receptor (Cavia porcellus) (UniProt P47747); experiment: Evaluated for activity against histamine H2 receptor in guinea pig atrium and represented as intrinsic activity; conditions: Cardiac atrium
[7] = target: Histamine H3 receptor (Rattus norvegicus) (UniProt Q9QYN8); experiment: Evaluated for activity against H3 receptor and represented as %recovery histamine release at a concentration 5 x 10 E -6M
Target sequence in this assay (Q9QYN8 whole entry, looked up): as the sequence (Q9QYN8 whole entry) above

Rattus norvegicus [8] = organism: Rattus norvegicus; experiment: Histamine level after treatment was determined in adbominal skin.; assay type: functional
Rattus norvegicus [9] = organism: Rattus norvegicus; experiment: Histamine level after treatment was determined in cerebral cortex; assay type: functional
Rattus norvegicus [10] = organism: Rattus norvegicus; experiment: Histamine level after treatment was determined in colon.; assay type: functional
Rattus norvegicus [11] = organism: Rattus norvegicus; experiment: Histamine level after treatment was determined in hypothalamus.; assay type: functional
Rattus norvegicus [12] = organism: Rattus norvegicus; experiment: Histamine level after treatment was determined in spleen; assay type: functional
[13] = target: Histamine H2 receptor (Cavia porcellus) (UniProt P47747); experiment: Evaluated for activity at Histamine H2 receptor in guinea pig ileum; assay type: tissue-based
[14] = target: Histamine H1 receptor (Cavia porcellus) (UniProt P31389); experiment: Evaluated for activity at Histamine H1 receptor in guinea pig ileum; assay type: tissue-based
Rattus norvegicus [15] = organism: Rattus norvegicus; experiment: Evaluated for inhibition of [3H]histamine release from preloaded slices and is represented as pD2.; assay type: functional
Rattus norvegicus [16] = organism: Rattus norvegicus; experiment: Relative inhibition of [3H]histamine release from pre-loaded slices of rat cerebral cortex; assay type: functional
[17] = target: Histamine H3 receptor (Rattus norvegicus) (UniProt Q9QYN8); experiment: Evaluated for antagonist activity against histamine H3 receptor and represented as KB; assay type: functional
Target sequence in this assay (Q9QYN8 whole entry): as above

[18] = target: Histamine H1 receptor (Cavia porcellus) (UniProt P31389); experiment: Evaluated for agonistic activity at histamine H1 receptor of guinea pig ileum and is represented as potency; assay type: functional, tissue-based
[19] = target: Histamine H2 receptor (Cavia porcellus) (UniProt P47747); experiment: Evaluated for agonistic (intrinsic) activity at histamine H2 receptor of guinea pig atrium and is represented as intrinsic activity; assay type: functional, tissue-based; conditions: Cardiac atrium
[20] = target: Histamine H1 receptor (Cavia porcellus) (UniProt P31389); experiment: Evaluated for agonistic activity at histamine H1 receptor of guinea pig ileum and is represented as intrinsic activity; assay type: functional, tissue-based
[21] = target: Histamine H2 receptor (Cavia porcellus) (UniProt P47747); experiment: Evaluated for their activity at histamine H2 receptor in guinea pig ileum.; assay type: tissue-based
[22] = target: Histamine H1 receptor (Cavia porcellus) (UniProt P31389); experiment: Evaluated for their activity at histamine H1 receptor in guinea pig ileum.; assay type: tissue-based
Rattus norvegicus [23] = organism: Rattus norvegicus; experiment: Inhibition of [3H]histamine release from preloaded slices of rat cerebral cortex as pD2; assay type: functional
Histamine H3 receptor [24] = target: T1, Histamine H3 receptor (Rattus norvegicus, UniProt Q9QYN8); experiment: (§1) Evaluated for antagonist activity against Histamine H3 receptor and represented as KB.; assay type: functional
[25] = target: Histamine H3 receptor (Rattus norvegicus) (UniProt Q9QYN8); experiment: Evaluated for activity against H3 receptor and represented as %recovery histamine release at a concentration 5 x 10 E -6M.
Target sequence in this assay (Q9QYN8 whole entry, looked up): as the sequence (Q9QYN8 whole entry) above

Rattus norvegicus [26] = organism: Rattus norvegicus; experiment: Histamine level after treatment was determined for both agents (R-alpha-methylhistamine, thioperamide) in; assay type: functional
Rattus norvegicus [27] = organism: Rattus norvegicus; experiment: Histamine level after treatment was determined for both agents (R-alpha-methylhistamine, thioperamide) in adbominal skin.; assay type: functional
Rattus norvegicus [28] = organism: Rattus norvegicus; experiment: Histamine level after treatment was determined for both agents (R-alpha-methylhistamine, thioperamide) in cerebral cortex; assay type: functional
Rattus norvegicus [29] = organism: Rattus norvegicus; experiment: Histamine level after treatment was determined for both agents (R-alpha-methylhistamine, thioperamide) in hypothalamus.; assay type: functional
Rattus norvegicus [30] = organism: Rattus norvegicus; experiment: Histamine level after treatment was determined for both agents (R-alpha-methylhistamine, thioperamide) in lung.; assay type: functional
Rattus norvegicus [31] = organism: Rattus norvegicus; experiment: Histamine level after treatment was determined for both agents (R-alpha-methylhistamine, thioperamide) in spleen; assay type: functional
[32] = target: Histamine H3 receptor (Cavia porcellus) (UniProt Q9JI35); experiment: as §1; assay type: functional
Rattus norvegicus [33] = organism: Rattus norvegicus; experiment: Evaluated for [3H]HA release at a frequency 33.3 Hz for 2 min at a concentration 10 E -5M.; assay type: functional
Rattus norvegicus [34] = organism: Rattus norvegicus; experiment: Evaluated for [3H]-HA release at a frequency 33.3 Hz for 2 min at a concentration 10 E -6M.; assay type: functional
Rattus norvegicus [35] = organism: Rattus norvegicus; experiment: Evaluated for [3H]-HA release at a frequency 10 Hz for 2 min at a concentration 10 E -5M; assay type: functional
Rattus norvegicus [36] = organism: Rattus norvegicus; experiment: Evaluated for [3H]HA release at a frequency 10 Hz for 2 min at a concentration 10 E -6M; assay type: functional
Rattus norvegicus [37] = organism: Rattus norvegicus; experiment: Evaluated for [3H]HA release at a frequency 10 Hz for 2 min at a concentration 10 E -7M; assay type: functional
Rattus norvegicus [38] = organism: Rattus norvegicus; experiment: Evaluated for [3H]HA release at a frequency 2 Hz for 2.5 min at a concentration 10 E -6M; assay type: functional
Rattus norvegicus [39] = organism: Rattus norvegicus; experiment: Evaluated for [3H]HA release at a frequency 20 Hz for 2 min at a concentration 10 E -5M; assay type: functional
Rattus norvegicus [40] = organism: Rattus norvegicus; experiment: Evaluated for [3H]HA release at a frequency 20 Hz for 2 min at a concentration 10 E -6M; assay type: functional
Rattus norvegicus [41] = organism: Rattus norvegicus; experiment: Evaluated for [3H]HA release at a frequency 20 Hz for 2 min at a concentration 10 E -7M; assay type: functional
[42] = target: Histamine H2 receptor (Cavia porcellus) (UniProt P47747); experiment: Evaluated for activity against histamine H2 receptor in guinea pig gastric secretion and represented as intrinsic activity; conditions: Stomach
[43] = target: Histamine H2 receptor (Cavia porcellus) (UniProt P47747); experiment: Evaluated for agonistic activity at histamine H2 receptor of guinea pig atrium and is represented as potency; assay type: functional, tissue-based; conditions: Cardiac atrium
Histamine H3 receptor [44] = target: T1, Histamine H3 receptor; experiment: Evaluated for antagonist activity against histamine H3 receptor and is represented as -log Ki.; assay type: functional

Chain of Histamine H2 receptor (Cavia porcellus) (P47747 whole entry): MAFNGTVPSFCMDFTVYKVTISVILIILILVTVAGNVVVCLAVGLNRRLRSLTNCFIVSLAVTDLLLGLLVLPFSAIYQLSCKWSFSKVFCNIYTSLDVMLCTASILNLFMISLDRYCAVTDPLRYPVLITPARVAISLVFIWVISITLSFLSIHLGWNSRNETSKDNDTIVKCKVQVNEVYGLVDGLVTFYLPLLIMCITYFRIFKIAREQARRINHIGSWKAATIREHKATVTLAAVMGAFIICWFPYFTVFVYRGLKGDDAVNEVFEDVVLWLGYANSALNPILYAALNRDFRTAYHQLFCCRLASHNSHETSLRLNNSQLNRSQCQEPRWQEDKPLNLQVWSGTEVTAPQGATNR
T1 sequence (Q9QYN8 whole entry): as the sequence (Q9QYN8 whole entry) above
Chain of Histamine H1 receptor (Cavia porcellus) (P31389 whole entry): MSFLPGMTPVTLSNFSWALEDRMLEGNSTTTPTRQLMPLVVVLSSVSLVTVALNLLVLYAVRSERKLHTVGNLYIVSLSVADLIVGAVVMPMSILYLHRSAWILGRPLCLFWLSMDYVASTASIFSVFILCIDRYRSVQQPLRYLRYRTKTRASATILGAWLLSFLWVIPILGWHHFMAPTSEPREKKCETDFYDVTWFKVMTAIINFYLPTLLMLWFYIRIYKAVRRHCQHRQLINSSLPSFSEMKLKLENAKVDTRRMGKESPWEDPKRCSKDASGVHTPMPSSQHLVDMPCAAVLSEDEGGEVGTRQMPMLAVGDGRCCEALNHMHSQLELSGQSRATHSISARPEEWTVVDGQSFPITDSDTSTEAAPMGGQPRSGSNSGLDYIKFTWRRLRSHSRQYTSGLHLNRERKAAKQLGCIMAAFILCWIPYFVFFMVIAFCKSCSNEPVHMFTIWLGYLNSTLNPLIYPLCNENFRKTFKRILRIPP
Chain of Histamine H3 receptor (Cavia porcellus) (Q9JI35 whole entry): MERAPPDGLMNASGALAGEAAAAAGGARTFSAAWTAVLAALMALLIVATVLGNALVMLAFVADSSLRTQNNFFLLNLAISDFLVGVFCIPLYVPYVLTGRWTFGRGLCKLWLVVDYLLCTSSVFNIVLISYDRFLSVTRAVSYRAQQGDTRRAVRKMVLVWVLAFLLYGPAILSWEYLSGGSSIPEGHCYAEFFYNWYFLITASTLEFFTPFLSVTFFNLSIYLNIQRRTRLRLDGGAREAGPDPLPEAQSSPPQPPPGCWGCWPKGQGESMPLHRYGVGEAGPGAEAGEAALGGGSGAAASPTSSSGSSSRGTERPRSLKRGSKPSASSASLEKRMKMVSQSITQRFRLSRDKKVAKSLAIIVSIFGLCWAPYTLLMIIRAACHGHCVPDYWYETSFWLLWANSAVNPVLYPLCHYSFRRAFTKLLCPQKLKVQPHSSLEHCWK

CNC(=S)NCCSCc1[nH]cnc1C
KB [1]: 920 nM
KB [2]: 2.5 µM

CC(C)Cc1ccc(CSCC/N=C(\N)NCCCc2c[nH]cn2)o1
pD2 [3]: 8.5
pD2 [4]: 7.8
Activity [5]: 0.9
intrinsic activity [6]: 0.9
Release [7]: 100%

S=C(NC1CCCCC1)N1CCC(c2cnc[nH]2)CC1 [THIOPERAMIDE]
Histamine level (Rattus norvegicus [8]): 75
Histamine level (Rattus norvegicus [9]): 234
Histamine level (Rattus norvegicus [10]): 80
Histamine level (Rattus norvegicus [11]): 245
Histamine level (Rattus norvegicus [12]): 123

CNCCc1cnc[nH]1
Activity [13]: 74
Activity [14]: 72
pD2 (Rattus norvegicus [15]): 8.7
Ratio_EC50 (Rattus norvegicus [16]): 270

CN(C)CC[C@@H](c1ccc(Cl)cc1)c1ccccn1
KB [17]: > 58 nM

Cc1nc[nH]c1CSCCN/C(N)=N/[C@@H](C)Cc1c[nH]cn1
Potency [18]: 0
Activity [19]: 0
Activity [20]: 0

CN(C)CCc1cnc[nH]1
Activity [21]: 51
Activity [22]: 44
pD2 (Rattus norvegicus [23]): 7.3
Ratio_EC50 (Rattus norvegicus [16]): 170

O=C(CCCc1ccccn1)NCCc1c[nH]cn1
Ki (Histamine H3 receptor [24]): 1000 nM

N=C(N)Nc1nc(CSCC/N=C(\N)NCCCc2c[nH]cn2)cs1
pD2 [3]: 8.2
pD2 [4]: 7.9
Activity [5]: 1
intrinsic activity [6]: 1
Release [25]: 100%

O=C(CCCCc1ccccc1)NCCc1cnc[nH]1
Ki (Histamine H3 receptor [24]): 200 nM

C[C@@H](N)Cc1c[nH]cn1.S=C(NC1CCCCC1)N1CCC(c2c[nH]cn2)CC1
Histamine level (Rattus norvegicus [26]): 75
Histamine level (Rattus norvegicus [27]): 73
Histamine level (Rattus norvegicus [28]): 196
Histamine level (Rattus norvegicus [29]): 205
Histamine level (Rattus norvegicus [30]): 143
Histamine level (Rattus norvegicus [31]): 96

CNC(=C[N+](=O)[O-])NCCSCc1ccc(CN(C)C)o1
KB [32]: 1.2 µM

Cc1[nH]cnc1CSCCNC(=N)NCCCc1c[nH]cn1 [IMPROMIDINE]
H2 activity [3]: 1
Activity [22]: < 0.001
HA release (Rattus norvegicus [33]): 38.4
HA release (Rattus norvegicus [34]): 39.5
HA release (Rattus norvegicus [35]): 25.5
HA release (Rattus norvegicus [36]): 25.9
HA release (Rattus norvegicus [37]): 25.3
HA release (Rattus norvegicus [38]): 14.3
HA release (Rattus norvegicus [39]): 35.1
HA release (Rattus norvegicus [40]): 35.5
HA release (Rattus norvegicus [41]): 31.2
intrinsic activity [42]: 1

Cc1nc[nH]c1CSCCN/C(N)=N/C(C)Cc1c[nH]cn1 (stereo unspecified)
Activity [19]: 0.8
pD2 [43]: 6.48

O=C(Cc1ccccc1)NCCc1c[nH]cn1
Ki (Histamine H3 receptor [24]): 1000 nM

O=C(CCCc1ccccc1)NCCc1cnc[nH]1
Ki (Histamine H3 receptor [24]): 79.4 nM

CN(C)CC[C@H](c1ccc(Cl)cc1)c1ccccn1
KB [2]: > 0.058 µM

O=C(CCCC1CCCCC1)NCCc1cnc[nH]1
Ki (Histamine H3 receptor [44]): 50.1 nM
